This assay deals with H^+ /K^+ -ATPase (Homo sapiens, UniProt P20648). The assay can be described thus: Inhibition of H^+ /K^+ -ATPase (comparison experiment / enzyme test). It counts as biochemical.
H^+ /K^+ -ATPase, sequence (P20648 whole entry): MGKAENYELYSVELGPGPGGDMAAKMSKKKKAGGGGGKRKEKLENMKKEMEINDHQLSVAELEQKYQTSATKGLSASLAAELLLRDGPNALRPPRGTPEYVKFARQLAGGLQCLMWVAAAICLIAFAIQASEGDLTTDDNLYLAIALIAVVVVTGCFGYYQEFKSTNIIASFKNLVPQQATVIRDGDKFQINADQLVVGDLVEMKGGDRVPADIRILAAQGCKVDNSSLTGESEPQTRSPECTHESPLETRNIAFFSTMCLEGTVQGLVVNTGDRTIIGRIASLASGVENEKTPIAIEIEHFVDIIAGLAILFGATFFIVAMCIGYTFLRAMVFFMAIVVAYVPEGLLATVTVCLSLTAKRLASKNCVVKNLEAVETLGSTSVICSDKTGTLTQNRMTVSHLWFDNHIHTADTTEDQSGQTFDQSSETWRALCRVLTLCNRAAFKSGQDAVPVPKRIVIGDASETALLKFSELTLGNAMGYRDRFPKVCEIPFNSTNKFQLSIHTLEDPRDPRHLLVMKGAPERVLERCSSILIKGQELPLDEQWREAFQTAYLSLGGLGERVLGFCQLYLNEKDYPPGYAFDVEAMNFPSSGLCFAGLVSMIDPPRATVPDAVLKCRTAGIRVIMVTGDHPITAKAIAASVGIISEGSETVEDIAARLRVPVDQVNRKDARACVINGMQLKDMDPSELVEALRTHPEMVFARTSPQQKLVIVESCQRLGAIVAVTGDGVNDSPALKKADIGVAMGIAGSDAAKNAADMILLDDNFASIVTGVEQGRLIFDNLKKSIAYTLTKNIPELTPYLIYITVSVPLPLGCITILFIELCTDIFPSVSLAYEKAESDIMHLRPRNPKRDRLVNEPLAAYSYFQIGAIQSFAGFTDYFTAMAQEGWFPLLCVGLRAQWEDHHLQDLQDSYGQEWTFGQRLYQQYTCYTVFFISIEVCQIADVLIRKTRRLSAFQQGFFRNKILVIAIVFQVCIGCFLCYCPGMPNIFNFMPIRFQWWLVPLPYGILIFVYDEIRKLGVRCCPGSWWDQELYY
H^+ /K^+ -ATPase, sequence (P51164 whole entry partner): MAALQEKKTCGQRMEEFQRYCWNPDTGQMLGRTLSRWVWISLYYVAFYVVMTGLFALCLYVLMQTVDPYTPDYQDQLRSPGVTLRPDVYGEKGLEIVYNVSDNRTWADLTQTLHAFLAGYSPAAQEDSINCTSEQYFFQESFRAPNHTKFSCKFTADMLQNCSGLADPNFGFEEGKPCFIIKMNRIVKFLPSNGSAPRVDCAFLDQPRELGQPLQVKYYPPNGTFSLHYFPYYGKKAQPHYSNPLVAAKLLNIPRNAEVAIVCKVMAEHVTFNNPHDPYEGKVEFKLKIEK

What is called IC50 is the concentration needed to halve the response being measured. As to `COc1c(C)cnc(C[S+]([O-])c2nc3cc(C4=NCCO4)ccc3[nH]2)c1C` (centres unmarked) [Substance A, 5-(4,5-dihydro-2-oxazolyl)-2-((3,5-dimethyl-4-methoxy-2-pyridyl)methylsulfinyl)-1H-benzimidazole], the half-inhibitory concentration (IC50) was 5.3 µM. Also, the “inhibition of H^+ /K^+ -ATPase relative to omeprazole” value (comparison with omeprazole) was “approximately five times greater than does omeprazole”.
